From patent US6083496A, “Polyamine transport inhibitors” (priority 1996, dated 2000)

Columns and labels:
polyamine transporter [1] = assay: Putrescine uptake ([3H]putrescine) in ZR-75-1 cells; assay type: cell-based, human; conditions: DESC up to 100 μM, MESC up to 200 μM
Method: (§1) J. Biol. […] Endocrinology 126: 3223-3231). […] Cell cultures were then washed twice with 1 ml PBS containing 5.7 mM sym-norspermidine. Cells were then lysed with 200-μl aliquot of 1 N NaOH and incubated for 30 minutes at 60° C. After neutralization with 200 μl of 1 N HCl, radioactivity was determined from a 250-μl of the cell lysate by scintillation counting. Uptake activity was expressed per amount of total cellular protein as determined by the method of Bradford (Bradford, M. M. 1976. Anal. Biochem. 72: 248-254). Non-specific binding of radioactive substrate was similarly determined in parallel for both cell lines after a 15 second-incubation with 400 μl of ice-cold uptake solution. […] Km, Ki and Vmax values were then estimated by Line-weaver-Burke analysis. For competitive inhibitors, Ki values were also estimated by measuring uptake activity in the presence of logarithmically increasing concentrations of antagonist, and using the Cheng-Prusoff equation (Cheng. Y. -C. and Prusoff, W. H. 1973. Biochem. Pharmacol. 22: 3099-3108) by iterative curve fitting for a sigmoidal curve. For mixed competitive/noncompetitive inhibition, two methods were used to calculate kinetic constants. […] C. 1976. Enzymes, 3rd Ed., Academic Press, San Diego, Calif.). […] C. 1976. Enzymes, 3rd Ed., Academic Press, San Diego, Calif.).

[2] = Stability in buffered aqueous solution; assay type: physicochemical; conditions: buffered at pH=7.0
ZR-75-1 cells [3] = assay: Effect of inhibitors on cell proliferation (11 days, DNA content); assay type: cell-based, human
Method: Effect of Inhibitors on Cell Proliferation--For growth studies, ZR-75-1 cells were cultured in MEZR medium or in phenol red-free RPMI 1640 supplemented with 2 mM L-glutamine, 1 mM sodium pyruvate, 15 mM Hepes, antibiotics, 1 nM 17β-estradiol, 0.5 μg of bovine insulin per ml and 5% (v/v) charcoal-treated fetal bovine serum (SD medium), as indicated in the text. […] M. L. 1989. in The Physiology of Polyamines (Bachrach, U., and Helmer, Y. M. eds) Vol. I, pp. 203-229, CRC Press, Boca Raton). […] Endocrinology 126: 3223-3231). Medium was changed every other day in these experiments because of the slow reaction of the compound with an unknown component present in the IMEM and RPMI 1640 medium formulation.

ZR-75-1 cells [4] = assay: Intracellular accumulation of DESC and MESC and polyamine contents (HPLC); assay type: cell-based, human
Method: Polyamine Analysis--ZR-75-1 cells were plated in 100 mm culture dishes at 5×10^5 cells/dish in MEZR medium and grown for 5 days with medium changes every other day. Fresh MEZR medium containing the indicated concentration of transport antagonist was then added, plus or minus 200 μM cycloheximide (CHX), and cells were incubated for 1 or 6 hours. […] Cell pellets were resuspended in 300 μl of 10% (v/v) trichloroacetic acid or Tris-DTT buffer (50 mM Tris/HCl, 0.1 mM EDTA, 5 mM DTT, pH 7.5) and stored at -20° C. until further analysis. For chromatographic analysis, samples were first quickly thawed and incubated for 15 minutes at 37° C. Trichloroacetic acid was then added to DTT-containing samples to a final concentration of 10% (wt/v). Samples were dispersed for 2 minutes in a sonicating water bath, and pelleted in a microcentrifuge for 5 minutes. The trichloroacetic acid-insoluble pellet was solubilized in 300-500 μl of 1 N NaOH and used to determine protein content using bovine serum albumin (fraction V) as standard.
Since DESC was eluted as a late, broad peak in the HPLC system used, DTT was added to cell extracts to reduce DESC to MESC and decrease the detection threshold. ZR-75-1 cells were incubated for 1 or 6 hours in MEZR medium in the presence of 50 or 200 μM DESC or MESC prior to determination of polyamine contents. CHX was added at 200 μM where indicated. Other details are provided under "Materials and Methods". Values are the mean±SD of triplicate determinations from 2 independent experiments.

[5] = DESC stability in biological media (HPLC, cell-free); assay type: physicochemical; conditions: imem medium, 37° C., 5% CO2, cell-free, read-out: Fraction of compound decomposed
Method: DESC stability--DESC stability was tested by incubating the compound dissolved (at 50 μM) in PBS or in IMEM medium containing 10% (v/v) fetal bovine serum plus or minus 1 mM aminoguanidine in a humid 5% CO2 atmosphere at 37° C. and in the absence of cells. At indicated times, trichloroacetic acid was added to aliquots of this solution to a final concentration 10% (w/v) and the samples directly analyzed by HPLC as above.

polyamine transporter [6] = assay: Spermine uptake ([14C]spermine) in ZR-75-1 cells; assay type: cell-based, human
Method: as §1

ZR-75-1 cells [7] = assay: Time course of intracellular [3H]spermidine accumulation with transport antagonists; assay type: cell-based; conditions: Homo sapiens
Method: The time course of intracellular accumulation of spermidine in the presence of transport antagonists was determined by incubating ZR-75-1 cells in 24-well plates with DESC (50 or 200 μM) or MESC (200 μM) in dissolved in MEZR medium containing 5 μM [^3 H]spermidine in the presence or absence of cycloheximide (CHX, 200 μM), and harvesting at the indicated times for the determination of intracellular radioactive contents, as described above for polyamine uptake assays.

ZR-75-1 cells [8] = assay: Reversal of DFMO-induced growth inhibition by exogenous spermidine; assay type: cell-based, human
Method: Effect of Inhibitors on Cell Proliferation--For growth studies, ZR-75-1 cells were cultured in MEZR medium or in phenol red-free RPMI 1640 supplemented with 2 mM L-glutamine, 1 mM sodium pyruvate, 15 mM Hepes, antibiotics, 1 nM 17β-estradiol, 0.5 μg of bovine insulin per ml and 5% (v/v) charcoal-treated fetal bovine serum (SD medium), as indicated in the text. When polyamines or polyamine analogs were added to serum-containing media, 1 mM aminoguanidine was added to inhibit bovine serum amine oxidase (BSAO) activity (Morgan, D. M. L. 1989. in The Physiology of Polyamines (Bachrach, U., and Helmer, Y. M. eds) Vol. I, pp. 203-229, CRC Press, Boca Raton). The effect of the transport inhibitors on cell growth was measured by incubating ZR-75-1 cells for 11 days in medium supplemental with antagonist, polyamines and/or 1 mM DFMO as indicated, followed by colorimetric determination of DNA content with 3,5-diaminobenzaic acid (Simard, J., Dauvois, S., Haagensen, D. E., Levesque, C., Merand, Y. and Labrie, F. 1990. Endocrinology 126: 3223-3231). Medium was changed every other day in these experiments because of the slow reaction of the compound with an unknown component present in the IMEM and RPMI 1640 medium formulation.

[9] = secondary amino group of the spermine head; cited from earlier work
polyamine transporter [10] = assay: Spermidine uptake ([3H]spermidine) in CHO-K1 cells; assay type: cell-based, Chinese hamster; conditions: MESC thioether derivatives, FIG. 5
polyamine transporter [11] = conditions: ZR-75-1 cells; compound as its own substrate; read-out: Km, putrescine transport; cited from earlier work
[12] = 200 μM compound + 200 μM CHX, 1 h
[13] = 200 μM compound + 200 μM CHX, 6 h

NCCCNCCCC(NCCCN)C(=O)NCCSSCCN (centres unmarked) [DEASC, N-[2,2'-Dithio(Ethyl, 1'-Aminoethyl)]spermine-5-carboxamide]
Mode of inhibition of [3H]putrescine uptake (polyamine transporter [1]): mixed competitive/non-competitive
Stability in aqueous solution [2]: stable for months
Influence of 1 mM aminoguanidine on the growth effect of the compound (ZR-75-1 cells [3]): completely prevented by the amine oxidase inhibitor
inhibition at 50 µM (ZR-75-1 cells [3]; Homo sapiens, ZR-75-1, 264 h, 50 μM, 11 days): 20%

NCCCNCCCC(NCCCN)C(=O)NCCSSCCNC(=O)C(CCCNCCCN)NCCCN (centres unmarked) [DESC, 2,2'-dithiobis(N-ethyl-spermine-5-carboxamide)]
DESC intracellular content (ZR-75-1 cells [4]; 50 μM compound, 1 h): < 0.01 nmol/mg protein
MESC intracellular content (ZR-75-1 cells [4]; 50 μM compound, 1 h): < 0.01 nmol/mg protein
Spermidine intracellular content (ZR-75-1 cells [4]; 50 μM compound, 1 h): 0.81 ± 0.14 nmol/mg protein
DESC intracellular content (ZR-75-1 cells [4]; 50 μM compound, 6 h): < 0.01 nmol/mg protein
MESC intracellular content (ZR-75-1 cells [4]; 50 μM compound, 6 h): < 0.01 nmol/mg protein
Spermidine intracellular content (ZR-75-1 cells [4]; 50 μM compound, 6 h): 0.73 ± 0.11 nmol/mg protein
Spermine intracellular content (ZR-75-1 cells [4]; 50 μM compound, 6 h): 8.60 ± 0.29 nmol/mg protein
Effect of CHX on internalization of the compound (ZR-75-1 cells [4]; 200 μM DESC + 200 μM CHX): did not enhance DESC internalization
DESC intracellular content (ZR-75-1 cells [4]; [12]): < 0.01 nmol/mg protein
MESC intracellular content (ZR-75-1 cells [4]; [12]): < 0.01 nmol/mg protein
Spermidine intracellular content (ZR-75-1 cells [4]; [12]): 0.76 ± 0.04 nmol/mg protein
MESC intracellular content (ZR-75-1 cells [4]; [13]): < 0.01 nmol/mg protein
Spermidine intracellular content (ZR-75-1 cells [4]; [13]): 0.70 ± 0.03 nmol/mg protein
DESC intracellular content (ZR-75-1 cells [4]; 200 μM compound, 1 h): < 0.01 nmol/mg protein
MESC intracellular content (ZR-75-1 cells [4]; 200 μM compound, 1 h): < 0.01 nmol/mg protein
Spermidine intracellular content (ZR-75-1 cells [4]; 200 μM compound, 1 h): 0.79 ± 0.11 nmol/mg protein
DESC intracellular content (ZR-75-1 cells [4]; 200 μM compound, 6 h): 0.12 ± 0.01 nmol/mg protein
MESC intracellular content (ZR-75-1 cells [4]; 200 μM compound, 6 h): < 0.01 nmol/mg protein
Spermidine intracellular content (ZR-75-1 cells [4]; 200 μM compound, 6 h): 0.76 ± 0.11 nmol/mg protein
Intracellular level relative to accumulation of substrates (spermidine, sym-norspermidine, spermine) under identical conditions (ZR-75-1 cells [4]; 200 μM, 6 h): about 1.5%
degraded at 48 h, 50 µM [5]: 40%
Increase in affinity for the polyamine transporter on dimerization of MESC into DESC (polyamine transporter [6]; DESC relative to MESC): up to 20 fold
Ki against [14C]spermine transport, fold lower than that of DEASC (polyamine transporter [6]; ZR-75-1 cells, FIG. 2): about 5 fold
Ki against [14C]spermine transport, fold lower than that of MESC (polyamine transporter [6]; ZR-75-1 cells, FIG. 2): ~16 fold
inhibition at 200 µM (ZR-75-1 cells [7]; 5 μM [3H]spermidine, 6 hours, no CHX, read-out: Decrease of net spermidine accumulation): 50%
activity at 200 µM (ZR-75-1 cells [7]; read-out: Cellular level of newly internalized spermidine relative to control conditions): 20%
Stability in aqueous solution [2]: stable for months
Prevention of the reversal of DFMO-induced growth inhibition by spermidine (ZR-75-1 cells [8]; 50 μM, DESC:spermidine ratio up to 500): unable to prevent the reversal

NCCC[C@](N)(C(=O)O)C(F)F [DFMO, α-difluoromethylornithine]
inhibition at 1000 µM (ZR-75-1 cells [8]; Homo sapiens, ZR-75-1, 264 h, 1 mM, 11-day incubation): ~50%

NCCCNCCCC(NCCCN)C(=O)NCCS (centres unmarked) [MESC, N-(2-mercaptoethyl)spermine-5-carboxamide]
DESC intracellular content (ZR-75-1 cells [4]; 50 μM compound, 1 h): < 0.01 nmol/mg protein
MESC intracellular content (ZR-75-1 cells [4]; 50 μM compound, 1 h): < 0.01 nmol/mg protein
Spermidine intracellular content (ZR-75-1 cells [4]; 50 μM compound, 1 h): 0.95 ± 0.11 nmol/mg protein
DESC intracellular content (ZR-75-1 cells [4]; 50 μM compound, 6 h): < 0.01 nmol/mg protein
MESC intracellular content (ZR-75-1 cells [4]; 50 μM compound, 6 h): < 0.01 nmol/mg protein
Spermidine intracellular content (ZR-75-1 cells [4]; 50 μM compound, 6 h): 0.75 ± 0.11 nmol/mg protein
DESC intracellular content (ZR-75-1 cells [4]; 200 μM compound, 1 h): < 0.01 nmol/mg protein
MESC intracellular content (ZR-75-1 cells [4]; 200 μM compound, 1 h): 0.020 nmol/mg protein
Spermidine intracellular content (ZR-75-1 cells [4]; 200 μM compound, 1 h): 1.15 ± 0.07 nmol/mg protein
DESC intracellular content (ZR-75-1 cells [4]; 200 μM compound, 6 h): < 0.01 nmol/mg protein
MESC intracellular content (ZR-75-1 cells [4]; 200 μM compound, 6 h): 0.13 nmol/mg protein
Spermidine intracellular content (ZR-75-1 cells [4]; 200 μM compound, 6 h): 0.81 ± 0.15 nmol/mg protein
pKa [9]: ≈ 5.5
Influence of 1 mM aminoguanidine on the growth effect of the compound (ZR-75-1 cells [3]): not blocked by aminoguanidine
inhibition at 200 µM (ZR-75-1 cells [3]; Homo sapiens, ZR-75-1, 264 h, 200 μM, 11 days, read-out: Decrease in cell growth): 35%

[N-]=[N+]=Nc1ccc(C(=O)NCCCCNC(=O)CSCCNC(=O)C(CCCNCCCN)NCCCN)c(O)c1 (centres unmarked) [MESC-ASIB]
Ki toward spermidine uptake compared with MESC (polyamine transporter [10]): did not signicantly (P>0.10) increase the Ki

NCCCNCCCC(NCCCN)C(=O)NCCSCC(=O)NCCN1C(=O)c2cc(S(=O)(=O)O)cc3c(N)c(S(=O)(=O)O)cc(c23)C1=O (centres unmarked) [MESC-LY]
Ki toward spermidine uptake compared with MESC (polyamine transporter [10]): did not signicantly (P>0.10) increase the Ki

NCCCNCCCC(NCCCN)C(=O)NCCSCC(N)=O (centres unmarked) [MESC-acetamide]
Ki toward spermidine uptake compared with MESC (polyamine transporter [10]): did not signicantly (P>0.10) increase the Ki

NCCCCN [Putrescine, 1,4-butane-diamine]
Km (polyamine transporter [11]): 3.7 ± 0.4 µM

N=C(N)NN [aminoguanidine, reference compound]
Effect on cell growth, compound alone (ZR-75-1 cells [3]; 1 mM, 11 days): slight inhibitory effect
